Where two headings read alike, the source gives them in different places.
How the values were obtained:
MYB mRNA = experiment: RT-qPCR splicing assay, MYB canonical junction (CJ) and alternative junction (AJ) mRNA; type: cell-based, human; conditions: Homo sapiens; for AC50: increase in MYB alternative junction (AJ) mRNA, read-out: MYB AJ AC50
Method in brief: (§1)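 A673 cells (normalized to PPIA) or K562 cells (normalized to GAPDH or GUSB) were treated 24 h at 37 °C with an 11-point 3-fold dilution series, top 10 uM, DMSO ≤0.25%. Cell lysates went to one-step RT-qPCR measuring canonical- and alternative-junction MYB or HTT transcripts.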

HTT mRNA = experiment: RT-qPCR splicing assay, HTT canonical junction (CJ) and alternative junction (AJ) mRNA; type: cell-based, human; conditions: Homo sapiens; for AC50: increase in HTT alternative junction (AJ) mRNA, read-out: HTT AJ AC50
Method in brief: as §1

[1] = Table 5 panel, canonical junction qPCR, compound concentration having 50% response in CJ decrease, read-out: MYB IC50 (decrease in CJ mRNA levels)
[2] = decrease in MYB canonical junction (CJ) mRNA, RT-qPCR, read-out: MYB CJ IC50
[3] = decrease in HTT canonical junction (CJ) mRNA, RT-qPCR, read-out: HTT CJ IC50
[4] = Table 5 panel, canonical junction qPCR, compound concentration having 50% response in CJ decrease, read-out: HTT IC50 (decrease in CJ mRNA levels)

Structure (SMILES) | IC50 (MYB mRNA; [1]) [µM] | IC50 (MYB mRNA; [2]) [µM] | AC50 (MYB mRNA; RT-qPCR) [µM] | IC50 (HTT mRNA; [3]) [µM] | AC50 (HTT mRNA; RT-qPCR) [µM] | IC50 (HTT mRNA; [4]) [µM]
Cc1cn2cc(-c3ccc4c(=O)n([C@H]5CCCNC5)ccc4c3)cc(F)c2n1 [Compound 404, 6-{8-fluoro-2-methylimidazo[1,2-a]pyridin-6-yl}-2-[(3S)-piperidin-3-yl]isoquinolin-1-one] | 1 to 10 | 1 to 10 | 1 to 10 | 1 to 10 | 1 to 10 | 1 to 10
Cc1cn2cc(-c3cc(S(C)(=O)=O)c4c(=O)n(C5CCNCC5)ccc4c3)cc(F)c2n1 [Compound 409, 6-(8-fluoro-2-methylimidazo[1,2-a]pyridin-6-yl)-8-(methylsulfonyl)-2-(piperidin-4-yl)isoquinolin-1(2H)-one] | > 10 | > 10 | > 10 | > 10 | > 10 | > 10
Cn1cc2cc(-c3cc(F)c4c(=O)n(C5CCNC6(CC6)C5)ccc4c3)cc(F)c2n1 (stereo not drawn) [Compound 412] | < 0.1 | < 0.1 | < 0.1 | < 0.1 | < 0.1 | < 0.1
Cc1cn2cc(-c3cc(F)c4c(=O)n(C5CCNC6(CC6)C5)ccc4c3)cc(Cl)c2n1 (stereo not drawn) [Compound 413, 2-{4-azaspiro[2.5]octan-7-yl}-6-{8-chloro-2-methylimidazo[1,2-a]pyridin-6-yl}-8-fluoroisoquinolin-1-one] | < 0.1 | < 0.1 | < 0.1 | < 0.1 | < 0.1 | < 0.1
Cn1cc2cc(-c3cc(F)c4c(=O)n(C5CCNC6(CC6)C5)ccc4c3)c(O)cc2n1 (stereo not drawn) [Compound 414, 2-{4-azaspiro[2.5]octan-7-yl}-8-fluoro-6-(6-hydroxy-2-methylindazol-5-yl)isoquinolin-1-one] | 1 to 10 | 1 to 10 | 1 to 10 | 1 to 10 | 1 to 10 | 1 to 10
Cc1cc(-c2cc(F)c3c(=O)n(C4CCNC5(CC5)C4)ccc3c2)cc2cn(C)nc12 (stereo not drawn) [Compound 415, 2-{4-azaspiro[2.5]octan-7-yl}-6-(2,7-dimethylindazol-5-yl)-8-fluoroisoquinolin-1-one] | < 0.1 | < 0.1 | < 0.1 | < 0.1 | < 0.1 | < 0.1
Cc1cn2cc(-c3cc(F)c4c(=O)n(C5CCNC6(CC6)C5)ccc4c3)cc(C)c2n1 (stereo not drawn) [Compound 416, 2-{4-azaspiro[2.5]octan-7-yl}-6-{2,8-dimethylimidazo[1,2-a]pyridin-6-yl}-8-fluoroisoquinolin-1-one] | < 0.1 | < 0.1 | < 0.1 | 0.1 to 1 | 0.1 to 1 | 0.1 to 1
Cc1nc2c(F)cc(-c3cc(F)c4c(=O)n(C5CCNC6(CC6)C5)ccc4c3)cc2o1 (stereo not drawn) [Compound 417, 2-{4-azaspiro[2.5]octan-7-yl}-8-fluoro-6-(4-fluoro-2-methyl-1,3-benzoxazol-6-yl)isoquinolin-1-one] | < 0.1 | < 0.1 | < 0.1 | < 0.1 | < 0.1 | < 0.1
Cc1nc2c(C)cc(-c3cc(F)c4c(=O)n(C5CCNC6(CC6)C5)ccc4c3)cc2o1 (stereo not drawn) [Compound 418, 2-{4-azaspiro[2.5]octan-7-yl}-6-(2,4-dimethyl-1,3-benzoxazol-6-yl)-8-fluoroisoquinolin-1-one] | < 0.1 | < 0.1 | < 0.1 | < 0.1 | < 0.1 | < 0.1
Cc1c(O)c(-c2cc(F)c3c(=O)n(C4CCNC5(CC5)C4)ccc3c2)cc2cn(C)nc12 (stereo not drawn) [Compound 419, 2-{4-azaspiro[2.5]octan-7-yl}-8-fluoro-6-(6-hydroxy-2,7-dimethylindazol-5-yl)isoquinolin-1-one] | 1 to 10 | 1 to 10 | 1 to 10 | > 10 | > 10 | > 10
Cn1cc2cc(-c3cc(F)c4c(=O)n(C5CCNC6(CC6)C5)ccc4c3)c(O)c(F)c2n1 (stereo not drawn) [Compound 420, 2-{4-azaspiro[2.5]octan-7-yl}-8-fluoro-6-(7-fluoro-6-hydroxy-2-methylindazol-5-yl)isoquinolin-1-one] | 0.1 to 1 | 0.1 to 1 | 0.1 to 1 | 1 to 10 | 1 to 10 | 1 to 10
Cc1cn2cc(-c3cc(F)c4c(=O)n(C5CCNC6(CC6)C5)ccc4c3)c(O)c(C)c2n1 (stereo not drawn) [Compound 421, 2-{4-azaspiro[2.5]octan-7-yl}-8-fluoro-6-{7-hydroxy-2,8-dimethylimidazo[1,2-a]pyridin-6-yl}isoquinolin-1-one] | > 10 | > 10 | > 10 | > 10 | > 10 | > 10
Cc1cn2nc(-c3cc(C)c4c(=O)n(C5CCNC6(CC6)C5)ncc4c3)cc(C)c2n1 (stereo not drawn) [Compound 423, 6-(2,8-dimethylimidazo[1,2-b]pyridazin-6-yl)-8-methyl-2-(4-azaspiro[2.5]octan-7-yl)phthalazin-1(2H)-one] | < 0.1 | < 0.1 | < 0.1 | < 0.1 | < 0.1 | < 0.1
Cc1cn2cc(-c3cc(F)c4c(=O)n(C5CCNC6(CC6)C5)ccc4c3)ncc2n1 (stereo not drawn) [Compound 428, 8-fluoro-6-(2-methylimidazo[1,2-a]pyrazin-6-yl)-2-(4-azaspiro[2.5]octan-7-yl)isoquinolin-1(2H)-one] | 0.1 to 1 | 0.1 to 1 | 0.1 to 1 | 1 to 10 | 1 to 10 | 1 to 10
Cc1cc(-c2cc(F)c3c(=O)n(C4CCNC5(CC5)C4)ccc3c2)cc2c1nc(C)n2C (stereo not drawn) [Compound 429] | > 10 | > 10 | > 10 | > 10 | > 10 | > 10
Cc1nc2c(F)cc(-c3cc(F)c4c(=O)n(C5CCNC6(CC6)C5)ccc4c3)cc2n1C (stereo not drawn) [Compound 430, 8-fluoro-6-(4-fluoro-1,2-dimethyl-1H-benzo[d]imidazol-6-yl)-2-(4-azaspiro[2.5]octan-7-yl)isoquinolin-1(2H)-one] | > 10 | > 10 | > 10 | > 10 | > 10 | > 10
Cc1cc(-c2cc(F)c3c(=O)n(C4CCNC5(CC5)C4)ccc3c2)nc2cn(C)nc12 (stereo not drawn) [Compound 431] | < 0.1 | < 0.1 | < 0.1 | < 0.1 | < 0.1 | < 0.1
Cc1cn2nc(-c3cc(O)c4c(=O)n(C5CCNC5)ccc4c3)cc(C)c2n1 (stereo not drawn) [Compound 432, 6-{2,8-dimethylimidazo[1,2-b]pyridazin-6-yl}-8-hydroxy-2-(pyrrolidin-3-yl)isoquinolin-1-one] | < 0.1 | 0.1 to 1 | < 0.1 | 1 to 10 | 1 to 10 | 1 to 10
Cc1cn2cc(-c3cc(O)c4c(=O)n(C5CCNC5)ccc4c3)cc(C#N)c2n1 (stereo not drawn) [Compound 433, 6-(8-hydroxy-1-oxo-2-(pyrrolidin-3-yl)-1,2-dihydroisoquinolin-6-yl)-2-methylimidazo[1,2-a]pyridine-8-carbonitrile] | < 0.1 | 1 to 10 | 0.1 to 1 | > 10 | > 10 | > 10
Cc1cn2cc(-c3cc(F)c4c(=O)n(C5CCNC5)ccc4c3)cc(C#N)c2n1 (stereo not drawn) [Compound 434, 6-[8-fluoro-1-oxo-2-(pyrrolidin-3-yl)isoquinolin-6-yl]-2-methylimidazo[1,2-a]pyridine-8-carbonitrile] | 0.1 to 1 | 0.1 to 1 | 0.1 to 1 | > 10 | > 10 | > 10
